# Experimental data from ChEMBL document CHEMBL3137667, “[Drug-induced liver injury; fourteenth updated edition of the bibliographic database of liver injuries and related drugs]” (Gastroenterol Clin Biol, 2004).
# Where a SMILES comes first, the peptide text is derived from it. Bridges are numbered along the chain shown (N, C = ends). [ ]: non-standard residue; d: D form. The star is where a group is joined. NMePhe(4-NMe2) = CN[C@@H](Cc1ccc(N(C)C)cc1)C(=O)O; Pip(4-oxo) = O=C1CCN[C@H](C(=O)O)C1; Picolinoyl(3-OH) = O=C(c1ncccc1O)*; Phg = N[C@H](C(=O)O)c1ccccc1; dAbu = CC[C@@H](N)C(=O)O
# Assays:
# [1] = human
# [2] = Highest frequency of acute liver toxicity observed during clinical trials, expressed as a percentage. [column '% AIGUE' in source]; settings: human
# [3] = human; remark: listed apart in the source
# [4] = human; remark: listed apart in the source
# [5] = human; remark: listed apart in the source
# [6] = human, serum, 4383 h
# [7] = human, serum
# [8] = human; remark: listed apart in the source
# [9] = human, serum; remark: listed apart in the source
# [10] = Highest frequency of moderate liver toxicity observed during clinical trials, expressed as a percentage. [column '% BIOL' in source]; settings: human
# [11] = human; remark: listed apart in the source
# [12] = human; remark: listed apart in the source
# [13] = Times to onset, minimal and maximal, observed in the indexed observations. [column 'DELAI' in source]; settings: human
# [14] = human; remark: listed apart in the source
# [15] = human; remark: listed apart in the source
# 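Wherever Hepatotoxicity (association with vascular disease) is given: count of indexed literature references reporting vascular liver injury in humans, e.g. peliosis hepatitis, hepatic veno-occlusive disease or Budd-Chiari syndrome.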
# 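Wherever Hepatotoxicity (benign tumour) is given: value is a count of indexed literature references citing a benign tumour confirmed by histopathology.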
# 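Wherever Hepatotoxicity (choleostasis) is given: human cholestatic liver injury, shown by histopathology or by peak ALT or AST elevation over alkaline phosphatase ratio below 2, value counts indexed literature reports.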
# 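Wherever Hepatotoxicity (chronic liver disease) is given: chronic liver injury confirmed by histopathology or persistently raised serum aminotransferase activity beyond 6 months, value given as the count of indexed literature references.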
# 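Wherever Hepatotoxicity (cirrhosis) is given: value is a count of indexed literature references reporting cirrhosis confirmed by histopathology.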
# 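Wherever Hepatotoxicity (cytolytic) is given: human cytolytic liver injury, shown by histopathology or by a ratio above 5 of peak ALT or AST elevation to alkaline phosphatase elevation, value counts indexed references.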
# 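Wherever Hepatotoxicity (granulomatous hepatitis) is given: value is a count of indexed literature references reporting granulomatous liver disease confirmed by histopathology.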
# 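Wherever Hepatotoxicity (malignant tumour) is given: malignant tumour confirmed by histopathology, value gives the count of indexed literature references reporting it.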
# 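Wherever Hepatotoxicity (severe hepatitis) is given: human clinical data: severe hepatitis, meaning potentially life-threatening liver failure or clinically observed cases, the value counts how many indexed literature references report it.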
# 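Wherever Hepatotoxicity (steatosis) is given: steatosis confirmed by histopathology, value is the count of indexed references.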
SMILES,Hepatotoxicity (steatosis) [1],Hepatotoxicity (acute) [2] [%],Hepatotoxicity (severe hepatitis) [3],Hepatotoxicity (cirrhosis) [4],Hepatotoxicity (cytolytic) [5],Hepatotoxicity (chronic liver disease) [6],Hepatotoxicity (moderate) [7],Hepatotoxicity (choleostasis) [8],Hepatotoxicity (acute) [9],Hepatotoxicity (moderate) [10] [%],Hepatotoxicity (association with vascular disease) [11],Hepatotoxicity (benign tumour) [12],Hepatotoxicity (time to onset) [13],Hepatotoxicity (granulomatous hepatitis) [14],Hepatotoxicity (malignant tumour) [15],also measured
CC[C@H]1NC(=O)[C@@H](NC(=O)c2ncccc2O)[C@@H](C)OC(=O)[C@H](c2ccccc2)NC(=O)[C@@H]2CC(=O)CCN2C(=O)[C@H](Cc2ccc(N(C)C)cc2)N(C)C(=O)[C@@H]2CCCN2C1=O [PRISTINAMYCIN 1A] ({Picolinoyl(3-OH)}-T[dAbu]P[NMePhe(4-NMe2)][Pip(4-oxo)][Phg]; ester 1-C),0,0,0,0,1,0,0,0,1,0,0,0,1.5 months,0,0,
NC(=O)CCC/N=C(\c1ccc(Cl)cc1)c1cc(F)ccc1O [PROGABIDE],0,3.4,4,0,4,0,6,0,6,30,0,0,2 weeks - 6 months,0,0,
[H]/N=C(\N/C(=N/[H])Nc1ccc(Cl)cc1)NC(C)C [PROGUANIL],0,0,0,0,1,0,1,0,1,16,0,0,6 weeks,0,0,
CCC(=O)[C@@]1(C)CC[C@H]2[C@@H]3CCC4=CC(=O)CCC4=C3CC[C@@]21C [PROMEGESTONE],0,0,0,0,0,0,0,0,0,0,0,1,3 years,0,0,
CC(C)c1cccc(C(C)C)c1O [PROPOFOL],0,,,0,,0,0,,2,,0,0,1 day - 4 weeks,,0,Hepatotoxicity (acute) ([2]; Liver): 0%; Hepatotoxicity (severe hepatitis) ([3]; Liver): 0; Hepatotoxicity (cytolytic) ([5]; Liver): 1; Hepatotoxicity (choleostasis) ([8]; Liver): 1; Hepatotoxicity (moderate) ([10]; Liver): 0%; Hepatotoxicity (granulomatous hepatitis) ([14]; Liver): 0
Cc1c(C(C)C)c(=O)n(-c2ccccc2)n1C [PROPYPHENAZONE],0,0,0,0,1,0,0,0,3,0,0,0,2 days - 2 years,2,0,
Fc1ccccc1C1=NCC(=S)N(CC(F)(F)F)c2ccc(Cl)cc21 [QUAZEPAM],0,0,0,0,0,0,1,0,0,0,0,0,4 weeks,0,0,
OCCOCCN1CCN(C2=Nc3ccccc3Sc3ccccc32)CC1 [QUETIAPINE],0,,,0,,0,3,,1,,0,0,1 week - 3 weeks,,0,Hepatotoxicity (acute) ([2]; Liver): 1.9%; Hepatotoxicity (severe hepatitis) ([3]; Liver): 0; Hepatotoxicity (cytolytic) ([5]; Liver): 1; Hepatotoxicity (choleostasis) ([8]; Liver): 0; Hepatotoxicity (moderate) ([10]; Liver): 14.8%; Hepatotoxicity (granulomatous hepatitis) ([14]; Liver): 0
COCCCOc1ccnc(C[S+]([O-])c2nc3ccccc3[nH]2)c1C (stereo not given) [RABEPRAZOLE],0,0,1,0,1,0,0,0,1,0,0,0,4 weeks,0,0,
CCN1CCC[C@H]1CNC(=O)c1c(O)c(Cl)cc(Cl)c1OC [RACLOPRIDE],0,0,0,0,0,0,1,0,0,2.2,0,0,1 week - 2 weeks,0,0,
CC(=O)OCC(=O)NCCCOc1cccc(CN2CCCCC2)c1 [ROXATIDINE ACETATE],0,0.5,0,0,0,0,2,0,1,0.4,0,0,4 weeks,0,0,
